In article PMC8693998 (Journal of natural products, 2021):
“Also recorded” adds a separate entry of the source.

Key:
[1] = tested on: human μ-opioid receptor (MOR); conditions: cited from earlier work
[2] = molecular target: human μ-opioid receptor (MOR); conditions: read-out: μ-opioid, Ki ± SEM; cited from earlier work
[3] = tested on: hot plate latency in catheterized rats; assay: Rat hot plate antinociception assay; type: in vivo, Sprague–Dawley rats
[4] = tested on: human μ-opioid receptor (MOR); assay: Human μ-opioid receptor binding affinity quoted from the literature; conditions: fold lower affinity than found in the present study
human μ-opioid receptor = human μ-opioid receptor (Homo sapiens, UniProt P35372); type: binding
Sequence of human μ-opioid receptor (P35372 whole entry): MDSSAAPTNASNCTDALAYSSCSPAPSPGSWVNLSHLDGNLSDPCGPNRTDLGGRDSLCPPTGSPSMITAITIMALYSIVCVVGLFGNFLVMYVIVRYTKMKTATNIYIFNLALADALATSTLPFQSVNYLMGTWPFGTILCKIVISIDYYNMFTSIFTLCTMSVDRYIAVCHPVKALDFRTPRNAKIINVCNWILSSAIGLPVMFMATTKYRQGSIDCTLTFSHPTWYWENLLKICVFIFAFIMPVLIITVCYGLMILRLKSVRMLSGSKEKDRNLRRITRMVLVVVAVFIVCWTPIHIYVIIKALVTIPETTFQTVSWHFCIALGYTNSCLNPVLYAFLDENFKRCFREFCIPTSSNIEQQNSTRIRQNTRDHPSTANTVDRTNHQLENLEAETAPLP

## CC[C@@H]1CN2CC[C@@]3(O)C(=Nc4cccc(OC)c43)[C@@H]2C[C@@H]1/C(=C\OC)C(=O)OC [7-hydroxymitragynine (11), 7-hydroxymitragynine, reference compound]
[1]
  Type of activity at the human μ-opioid receptor: partial agonists
[2]
  Ki: 7.2 nM

## CC[C@@H]1CN2CC[C@@]3(C(=O)Nc4ccccc43)[C@@H]2C[C@@H]1/C(=C\OC)C(=O)OC [corynoxine (1), corynoxine]
[3]; rat hot plate, 0.1 mg/kg (i.v.) naltrexone after cumulative doses, 0.1 mg/kg
  Reversal of antinociception by naltrexone: fully reversed; also recorded: antagonized by naltrexone
[3]; rats, nociceptive hot plate assay, fold more potent than morphine
  Potency relative to morphine in hot plate assay: 1.8 fold

## CC[C@@H]1CN2CC[C@]3(C(=O)Nc4ccccc43)[C@@H]2C[C@@H]1/C(=C\OC)C(=O)OC [corynoxine B (2), corynoxine B]
[4]
  μ-opioid affinity in a recent study relative to the present study: approximately 15 fold
Human μ-opioid receptor; human μ-opioid receptor, […]
  Loss of hMOR affinity relative to corynoxine (1): about 6 times

## CC[C@@H]1CN2CCc3c([nH]c4cccc(OC)c34)[C@@H]2C[C@@H]1/C(=C\OC)C(=O)OC [mitragynine (6), mitragynine]
[1]
  Type of activity at the human μ-opioid receptor: partial agonists

## CC[C@@H]1CN2CC[C@]3(C(=O)Nc4cccc(OC)c43)[C@@H]2C[C@@H]1/C(=C\OC)C(=O)OC [mitragynine oxindole B (4), mitragynine oxindole B]
Human μ-opioid receptor
  Loss of hMOR affinity relative to corynoxine B (2): 16 fold

## CC[C@@H]1CN2CCc3c([nH]c4cccc(OC)c34)[C@H]2C[C@@H]1/C(=C\OC)C(=O)OC [speciociliatine (9), speciociliatine]
[1]
  Type of activity at the human μ-opioid receptor: partial agonists
